ChEMBL document CHEMBL5230137, “4-(3H)-quinazolinones N-3 substituted with a five membered heterocycle: A promising scaffold towards bioactive molecules” (Eur J Med Chem, 2021)
In brackets after ≈: the same amount, converted by molar mass. One block for each compound: values may come before it.

Key:
[1] = target: COX-1/COX-2 (Homo sapiens) (UniProt P35354+P23219); assay: Selectivity index, ratio of IC50 for human COX-1 to IC50 for human COX-2; format: protein assay
[2] = tested on: K562; assay: Anticancer activity against human K562 cells assessed as reduction in cell viability; format: functional, cell-based
[3] = tested on: Staphylococcus aureus; assay: Bactericidal activity against Staphylococcus aureus; format: functional
[4] = tested on: Escherichia coli; assay: Antibacterial activity against Escherichia coli by CLSI method; format: functional
[5] = tested on: Bacillus subtilis; assay: Antimicrobial activity against Bacillus subtilis by CLSI method; format: functional
[6] = tested on: Pseudomonas aeruginosa; assay: Antimicrobial activity against Pseudomonas aeruginosa by CLSI method; format: functional
[7] = tested on: Staphylococcus aureus; assay: Antimicrobial activity against Staphylococcus aureus by CLSI method; format: functional
[8] = Acute toxicity in po dosed Swiss albino mouse measured after 24 hrs; format: organism-based; settings: in vivo
[9] = tested on: Ehrlich; assay: Antitumor activity against mouse EAC cells implanted in mouse assessed as reduction in tumor cell count; format: functional; parameters: scale not given: the % may be the effect or the level left
[10] = tested on: Ehrlich; assay: Antitumor activity against mouse EAC cells implanted in mouse assessed as decrease in total ascitic volume; format: functional; parameters: scale not given: the % may be the effect or the level left
[11] = tested on: Escherichia coli; assay: Bactericidal activity against Escherichia coli; format: functional
[12] = tested on: Pseudomonas aeruginosa; assay: Bactericidal activity against Pseudomonas aeruginosa; format: functional
[13] = target: Phosphatidylinositol 4,5-bisphosphate 3-kinase catalytic subunit alpha isoform (Homo sapiens, UniProt P42336); assay: Inhibition of PI3Kalpha (unknown origin) incubated for 90 mins by [gamma-33P]-ATP based scintillation counting method
[14] = Inhibition of PI3Kdelta in Rat1 cells reduction in phosphorylation of AKT at Ser473 residue incubated for 2 hrs by alpha screen assay; format: cell-based; settings: Rattus norvegicus, Rat1, 2 h
[15] = target: T1, Thermolysin (Bacillus thermoproteolyticus, UniProt P00800); assay: Binding affinity to Bacillus thermoproteolyticus Thermolysin assessed as inhibition constant by Cheng-Prusoff equation analysis
T1 sequence (P00800 whole entry): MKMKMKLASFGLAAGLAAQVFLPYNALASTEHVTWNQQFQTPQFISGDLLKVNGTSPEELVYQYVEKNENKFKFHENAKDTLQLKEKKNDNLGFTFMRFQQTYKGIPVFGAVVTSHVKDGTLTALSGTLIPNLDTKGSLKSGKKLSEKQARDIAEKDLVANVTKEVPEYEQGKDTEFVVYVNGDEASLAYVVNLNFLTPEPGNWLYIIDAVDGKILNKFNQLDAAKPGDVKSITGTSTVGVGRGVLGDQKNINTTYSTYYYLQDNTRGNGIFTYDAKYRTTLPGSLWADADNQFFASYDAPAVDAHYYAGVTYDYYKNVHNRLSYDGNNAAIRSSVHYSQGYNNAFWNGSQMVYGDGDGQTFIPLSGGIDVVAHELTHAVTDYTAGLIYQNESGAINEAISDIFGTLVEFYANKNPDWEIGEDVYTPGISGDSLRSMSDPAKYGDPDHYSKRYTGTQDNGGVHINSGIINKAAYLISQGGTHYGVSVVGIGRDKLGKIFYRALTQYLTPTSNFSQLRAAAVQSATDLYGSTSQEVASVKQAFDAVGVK

[16] = target: T1, Thermolysin; assay: Inhibition of Bacillus thermoproteolyticus Thermolysin
[17] = target: T2, Phosphatidylinositol 4,5-bisphosphate 3-kinase catalytic subunit delta isoform (Homo sapiens, UniProt O00329); assay: Inhibition of PI3Kdelta (unknown origin) incubated for 90 mins by [gamma-33P]-ATP based scintillation counting method
T2 sequence (O00329 whole entry): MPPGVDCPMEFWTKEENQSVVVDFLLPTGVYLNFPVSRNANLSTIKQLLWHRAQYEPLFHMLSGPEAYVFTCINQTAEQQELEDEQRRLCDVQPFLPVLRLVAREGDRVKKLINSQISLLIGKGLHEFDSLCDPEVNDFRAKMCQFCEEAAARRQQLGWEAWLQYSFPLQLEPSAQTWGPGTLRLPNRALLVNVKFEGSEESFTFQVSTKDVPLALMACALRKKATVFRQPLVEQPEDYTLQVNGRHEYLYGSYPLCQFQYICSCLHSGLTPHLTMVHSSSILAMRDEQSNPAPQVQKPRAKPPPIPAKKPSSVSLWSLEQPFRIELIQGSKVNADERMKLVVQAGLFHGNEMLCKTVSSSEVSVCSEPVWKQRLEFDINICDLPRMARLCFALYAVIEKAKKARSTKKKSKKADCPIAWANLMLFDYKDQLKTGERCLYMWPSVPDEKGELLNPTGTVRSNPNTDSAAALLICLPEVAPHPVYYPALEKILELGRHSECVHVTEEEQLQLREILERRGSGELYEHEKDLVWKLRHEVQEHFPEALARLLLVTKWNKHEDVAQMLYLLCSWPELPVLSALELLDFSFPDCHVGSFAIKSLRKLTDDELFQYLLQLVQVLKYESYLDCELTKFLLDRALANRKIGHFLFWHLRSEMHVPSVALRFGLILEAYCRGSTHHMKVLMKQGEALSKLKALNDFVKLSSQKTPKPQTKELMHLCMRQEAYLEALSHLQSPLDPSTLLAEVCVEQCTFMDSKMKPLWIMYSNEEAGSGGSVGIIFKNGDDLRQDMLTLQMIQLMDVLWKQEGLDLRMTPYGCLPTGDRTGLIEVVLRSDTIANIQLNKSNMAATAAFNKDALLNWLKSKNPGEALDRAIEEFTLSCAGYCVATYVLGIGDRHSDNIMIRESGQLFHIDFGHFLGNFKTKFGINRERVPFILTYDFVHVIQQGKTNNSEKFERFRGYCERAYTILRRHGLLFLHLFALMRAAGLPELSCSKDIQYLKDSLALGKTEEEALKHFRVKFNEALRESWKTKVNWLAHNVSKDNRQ

[18] = target: Phosphatidylinositol 4,5-bisphosphate 3-kinase catalytic subunit gamma isoform (Homo sapiens, UniProt P48736); assay: Inhibition of PI3Kgamma (unknown origin) incubated for 90 mins by [gamma-33P]-ATP based scintillation counting method
[19] = target: Epidermal growth factor receptor (Homo sapiens, UniProt P00533); assay: Inhibition of wild type human EGFR measured by ELISA analysis
[20] = tested on: Aspergillus clavatus; assay: Fungicidal activity against Aspergillus clavatus; format: functional
[21] = tested on: Aspergillus niger; assay: Fungicidal activity against Aspergillus niger; format: functional
[22] = tested on: Candida albicans; assay: Fungicidal activity against Candida albicans; format: functional

Sequence of Phosphatidylinositol 4,5-bisphosphate 3-kinase catalytic subunit alpha isoform (P42336 whole entry, canonical isoform): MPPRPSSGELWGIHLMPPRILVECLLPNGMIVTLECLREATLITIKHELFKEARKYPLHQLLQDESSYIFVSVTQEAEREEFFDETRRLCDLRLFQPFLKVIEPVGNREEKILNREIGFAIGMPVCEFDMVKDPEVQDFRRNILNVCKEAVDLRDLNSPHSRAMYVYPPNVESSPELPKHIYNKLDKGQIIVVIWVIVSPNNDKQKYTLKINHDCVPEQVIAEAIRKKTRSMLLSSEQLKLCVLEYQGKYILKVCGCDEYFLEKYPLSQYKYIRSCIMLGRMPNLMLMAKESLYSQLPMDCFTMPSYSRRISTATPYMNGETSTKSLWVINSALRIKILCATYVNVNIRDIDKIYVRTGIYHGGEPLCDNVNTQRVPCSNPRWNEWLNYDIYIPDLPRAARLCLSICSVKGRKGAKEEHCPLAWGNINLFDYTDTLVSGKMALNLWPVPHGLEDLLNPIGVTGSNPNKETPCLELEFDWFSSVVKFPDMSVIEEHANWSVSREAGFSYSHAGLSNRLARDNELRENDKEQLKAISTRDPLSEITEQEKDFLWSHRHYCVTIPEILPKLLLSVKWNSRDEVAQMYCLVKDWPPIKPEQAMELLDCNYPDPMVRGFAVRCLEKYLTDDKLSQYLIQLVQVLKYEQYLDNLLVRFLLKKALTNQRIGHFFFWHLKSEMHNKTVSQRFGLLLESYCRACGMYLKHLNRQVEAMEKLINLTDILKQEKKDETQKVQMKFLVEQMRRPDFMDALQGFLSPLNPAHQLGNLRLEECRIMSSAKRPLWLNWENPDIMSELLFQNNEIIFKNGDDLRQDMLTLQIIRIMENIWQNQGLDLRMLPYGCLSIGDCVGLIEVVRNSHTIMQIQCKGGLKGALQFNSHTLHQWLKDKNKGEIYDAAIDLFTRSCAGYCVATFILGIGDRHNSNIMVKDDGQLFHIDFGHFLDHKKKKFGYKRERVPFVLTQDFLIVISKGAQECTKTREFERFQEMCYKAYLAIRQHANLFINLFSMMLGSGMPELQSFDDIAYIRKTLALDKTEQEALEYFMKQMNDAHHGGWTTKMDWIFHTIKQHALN
Sequence of Epidermal growth factor receptor (P00533 whole entry): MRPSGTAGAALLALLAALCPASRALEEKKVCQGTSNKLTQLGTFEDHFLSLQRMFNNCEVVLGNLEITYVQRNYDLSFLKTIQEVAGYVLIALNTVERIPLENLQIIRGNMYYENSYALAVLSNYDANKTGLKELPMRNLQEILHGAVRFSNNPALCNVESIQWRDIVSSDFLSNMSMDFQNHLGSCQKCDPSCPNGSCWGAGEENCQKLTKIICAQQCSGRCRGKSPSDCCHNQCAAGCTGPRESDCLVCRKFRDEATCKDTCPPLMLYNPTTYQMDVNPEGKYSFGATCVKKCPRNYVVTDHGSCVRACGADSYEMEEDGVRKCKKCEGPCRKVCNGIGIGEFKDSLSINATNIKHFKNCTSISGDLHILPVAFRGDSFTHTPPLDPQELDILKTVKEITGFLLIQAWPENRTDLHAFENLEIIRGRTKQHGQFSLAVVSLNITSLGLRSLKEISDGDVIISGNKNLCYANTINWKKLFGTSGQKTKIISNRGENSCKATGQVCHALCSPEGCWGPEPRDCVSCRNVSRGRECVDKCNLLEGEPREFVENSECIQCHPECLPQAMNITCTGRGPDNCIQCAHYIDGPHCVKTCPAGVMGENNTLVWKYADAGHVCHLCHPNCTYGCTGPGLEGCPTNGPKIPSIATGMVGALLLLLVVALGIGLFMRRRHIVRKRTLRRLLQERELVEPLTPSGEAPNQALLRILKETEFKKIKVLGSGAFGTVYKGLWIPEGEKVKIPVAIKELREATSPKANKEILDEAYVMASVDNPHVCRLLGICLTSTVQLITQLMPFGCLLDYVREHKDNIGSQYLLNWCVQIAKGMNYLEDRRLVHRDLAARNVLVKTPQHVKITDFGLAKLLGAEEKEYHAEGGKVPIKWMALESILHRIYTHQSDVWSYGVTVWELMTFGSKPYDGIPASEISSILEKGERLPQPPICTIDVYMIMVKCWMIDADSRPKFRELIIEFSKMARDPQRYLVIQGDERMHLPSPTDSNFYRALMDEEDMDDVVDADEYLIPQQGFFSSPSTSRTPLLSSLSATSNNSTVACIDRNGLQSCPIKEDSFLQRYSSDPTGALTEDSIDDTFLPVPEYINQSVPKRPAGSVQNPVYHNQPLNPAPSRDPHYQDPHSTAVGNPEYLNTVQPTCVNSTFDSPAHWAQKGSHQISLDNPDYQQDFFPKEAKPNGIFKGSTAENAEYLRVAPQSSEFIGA
Sequence of Phosphatidylinositol 4,5-bisphosphate 3-kinase catalytic subunit gamma isoform (P48736 whole entry, canonical isoform): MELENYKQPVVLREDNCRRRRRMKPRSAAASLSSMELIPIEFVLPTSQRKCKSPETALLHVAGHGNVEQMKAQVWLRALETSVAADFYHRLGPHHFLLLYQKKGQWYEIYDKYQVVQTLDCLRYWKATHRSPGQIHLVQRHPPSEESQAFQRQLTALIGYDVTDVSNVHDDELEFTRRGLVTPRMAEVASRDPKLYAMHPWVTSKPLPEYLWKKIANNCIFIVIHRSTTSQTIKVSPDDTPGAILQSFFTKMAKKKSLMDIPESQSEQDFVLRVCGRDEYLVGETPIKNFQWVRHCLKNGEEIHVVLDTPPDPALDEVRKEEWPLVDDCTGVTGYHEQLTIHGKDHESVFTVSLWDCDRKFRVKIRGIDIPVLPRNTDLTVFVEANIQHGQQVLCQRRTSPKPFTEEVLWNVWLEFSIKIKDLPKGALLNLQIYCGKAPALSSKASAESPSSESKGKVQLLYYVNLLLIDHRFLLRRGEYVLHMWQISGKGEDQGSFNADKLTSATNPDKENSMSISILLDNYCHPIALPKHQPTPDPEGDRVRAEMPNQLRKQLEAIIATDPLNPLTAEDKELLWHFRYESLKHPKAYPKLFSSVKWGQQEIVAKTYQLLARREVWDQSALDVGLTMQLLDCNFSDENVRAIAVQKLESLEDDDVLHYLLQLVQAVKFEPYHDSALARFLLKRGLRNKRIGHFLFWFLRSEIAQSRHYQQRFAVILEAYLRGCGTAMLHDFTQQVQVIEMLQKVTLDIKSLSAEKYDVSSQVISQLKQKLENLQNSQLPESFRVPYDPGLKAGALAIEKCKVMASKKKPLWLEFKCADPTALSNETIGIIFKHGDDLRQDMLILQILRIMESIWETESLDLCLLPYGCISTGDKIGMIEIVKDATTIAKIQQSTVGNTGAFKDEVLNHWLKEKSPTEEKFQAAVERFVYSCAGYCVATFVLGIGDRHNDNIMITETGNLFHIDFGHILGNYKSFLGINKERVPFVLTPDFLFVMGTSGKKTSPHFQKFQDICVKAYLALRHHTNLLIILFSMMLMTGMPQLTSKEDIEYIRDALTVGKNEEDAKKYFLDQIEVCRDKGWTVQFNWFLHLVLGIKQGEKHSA

Structure (SMILES): O=c1c2cc(I)ccc2nc(Cc2ccccc2Nc2c(Cl)cccc2Cl)n1-c1ccc(-c2nnc(-c3ccccc3Cl)o2)cc1
MBC [3]: 50 µg/mL (≈ 64.4 µM)

Structure (SMILES): O=c1c2ccccc2nc(Cc2ccccc2Nc2c(Cl)cccc2Cl)n1-c1ccc(-c2nnc(-c3ccccc3Cl)o2)cc1
MBC [3]: 50 µg/mL (≈ 76.8 µM)

Structure (SMILES): CC1=Cc2ccc(Br)cc2C(=O)C1c1nnc(SCC(=O)NC2C(=O)CSC2c2c(Br)cccc2Br)[nH]1 (centres undefined)
LD [8]: 1400 mg/kg

Structure (SMILES): CC1(C)S[C@@H]2[C@H](NC(=O)[C@H](N)c3ccccc3)C(=O)N2[C@H]1C(=O)O [AMPICILLIN]
MBC [3]: 250 µg/mL (≈ 715 µM)

Structure (SMILES): O=c1c2cc(Br)ccc2nc(Cc2ccccc2Nc2c(Cl)cccc2Cl)n1-c1nnc(-c2ccccc2Cl)o1
MBC [3]: 50 µg/mL (≈ 76.5 µM)

Structure (SMILES): Cc1nc2ccccc2c(=O)n1-c1nnc(S)s1
Activity [9]: 12%
Activity [10]: 28%

Structure (SMILES): O=c1c2cc(I)ccc2nc(Cc2ccccc2Nc2c(Cl)cccc2Cl)n1Cc1nnc(-c2ccc(Cl)cc2)o1
MBC [11]: 50 µg/mL (≈ 70 µM)
MBC [12]: 150 µg/mL (≈ 210 µM)

Structure (SMILES): Cn1nccc1-n1c([C@@H]2CSCN2c2ncnc3[nH]cnc23)nc2cccc(Cl)c2c1=O
IC50 [13]: 9.1 µM
IC50 [14]: 222 nM

Structure (SMILES): O=c1c2ccccc2nc(-c2ccccc2)n1-c1nccs1
Ki [15]: 59.3 µM
IC50 [16]: 76.8 µM

Structure (SMILES): O=c1c2cc(I)ccc2nc(Cc2ccccc2Nc2c(Cl)cccc2Cl)n1-c1ccc(-c2nnc(-c3ccc(Cl)cc3)o2)cc1
MBC [3]: 50 µg/mL (≈ 64.4 µM)

Structure (SMILES): Cn1nccc1-n1c([C@@H]2CSCN2c2ncnc(N)c2C#N)nc2cccc(Cl)c2c1=O
IC50 [14]: > 10000 nM

Structure (SMILES): CC1=Cc2ccc(Br)cc2C(=O)C1c1nnc(SCC(=O)N/N=C/c2c(Br)cccc2Br)[nH]1 (centres undefined)
LD [8]: 1400 mg/kg

Structure (SMILES): O=c1c2cc(I)ccc2nc(Cc2ccccc2Nc2c(Cl)cccc2Cl)n1Cc1nnc(-c2ccccc2Cl)o1
MFC [20]: 200 µg/mL (≈ 280 µM)
MFC [21]: 200 µg/mL (≈ 280 µM)
MFC [22]: 100 µg/mL (≈ 140 µM)

Structure (SMILES): CN1CCN(C)/C(=N/c2ccc([N+](=O)[O-])cc2C(=O)Nc2ccccc2)C1
IC50 [13]: > 10 µM
IC50 [14]: 2260 nM
IC50 [17]: 82 nM
IC50 [18]: > 10000 nM

Now from value to compound, other results behind:

Ratio IC50 [1]: 2.55
Structure (SMILES): O=c1c2cc(Cl)ccc2nc(-c2ccccc2)n1-c1n[nH]c2ccccc12

IC50 [2]: 1000 nM
Structure (SMILES): O=c1c2ccccc2nc(Cc2ccccc2Nc2c(Cl)cccc2Cl)n1Cc1nnc(-c2ccc(Cl)cc2)o1

MIC [4]: 70 µg/mL (≈ 164 µM)
MIC [5]: 75 µg/mL (≈ 176 µM)
MIC [6]: 70 µg/mL (≈ 164 µM)
MIC [7]: 79 µg/mL (≈ 185 µM)
Structure (SMILES): O=c1c2ccccc2nc(/C=C/c2ccccc2)n1-c1nnc(-c2ccc(Cl)cc2)o1

Ratio IC50 [1]: 1.05
Structure (SMILES): O=c1c2cc(Br)ccc2nc(-c2ccccc2)n1-c1n[nH]c2ccccc12

IC50 [13]: > 10 µM
IC50 [14]: 509 nM
IC50 [17]: 140 nM
IC50 [18]: 1100 nM
Structure (SMILES): N#Cc1c(N)ncnc1N1CSC[C@H]1c1nc2cccc(Cl)c2c(=O)n1-c1cccs1

Ratio IC50 [1]: 3.59
Structure (SMILES): Cc1ccc2nc(-c3ccccc3)n(-c3n[nH]c4ccccc34)c(=O)c2c1

IC50 [2]: 1500 nM
Structure (SMILES): O=c1c2cc(Br)ccc2nc(Cc2ccccc2Nc2c(Cl)cccc2Cl)n1Cc1nnc(-c2ccc(Cl)cc2)o1
MBC [3]: 50 µg/mL (≈ 74.9 µM)

IC50 [19]: 102 nM
Structure (SMILES): O=c1c2ccc(Cl)cc2nc(-c2ccccc2)n1-c1nnc(-c2ccccc2C2CC2)o1

IC50 [19]: 21 nM
Structure (SMILES): COc1ccc(-c2nnc(-n3c(-c4ccccc4)nc4cc(Cl)ccc4c3=O)o2)cc1
